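Briefly, cells in 96-well plates were exposed to five compound concentrations for 48 h, and endpoints were estimated by linear interpolation. TGI: total growth inhibition.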
Tests used:
Assay in all cases: inhibition of tumour cell growth, NCI panel, 48 h
ACHN renal = test system: ACHN renal
CCRF-CEM leukemia = test system: CCRF-CEM leukemia
HCT-15 colon = test system: HCT-15 colon
HL-60(TB) leukemia = test system: HL-60(TB) leukemia
HOP-62 NSCLC = test system: HOP-62 NSCLC
HT29 colon = test system: HT29 colon
IGROV1 ovarian = test system: IGROV1 ovarian
MALME-3M melanoma = test system: MALME-3M melanoma
NCI-H460 lung = test system: NCI-H460 lung
OVCAR-5 ovarian = test system: OVCAR-5 ovarian
SF-268 CNS = test system: SF-268 CNS
SF-539 CNS = test system: SF-539 CNS
SK-OV-3 ovarian = test system: SK-OV-3 ovarian

| Compound | TGI (ACHN renal) [µM] | TGI (CCRF-CEM leukemia) [µM] | TGI (HCT-15 colon) [µM] | TGI (HL-60(TB) leukemia) [µM] | TGI (HOP-62 NSCLC) [µM] | TGI (HT29 colon) [µM] | TGI (IGROV1 ovarian) [µM] | TGI (MALME-3M melanoma) [µM] | TGI (NCI-H460 lung) [µM] | TGI (OVCAR-5 ovarian) [µM] | TGI (SF-268 CNS) [µM] | TGI (SF-539 CNS) [µM] | TGI (SK-OV-3 ovarian) [µM] |
| --- | --- | --- | --- | --- | --- | --- | --- | --- | --- | --- | --- | --- | --- |
| CNc1ccc2c(c1)Cc1ccccc1-2 | > 100 | > 100 | > 100 | > 100 | > 100 | > 100 | > 100 | > 100 | > 100 | > 100 | > 100 | > 100 |  |
| COc1ccc(CCCCl)c(C2=NCCc3ccccc32)c1 | > 100 | > 100 | > 100 | > 100 | > 100 | > 100 | > 100 |  | > 100 | > 100 | > 100 | > 100 | > 100 |
| CC12CCC(C/C1=N\NC(N)=O)C2(C)C (configuration not stated) | > 100 | > 100 | > 100 | > 100 | > 100 | > 100 | > 100 | > 100 | > 100 | > 100 | > 100 |  | > 100 |
| FC(F)=C(c1ccc(-c2ccc(Cl)cc2)cc1)C(F)(F)F | 31.1 | 62.1 | 42.2 | > 100 |  | 67.4 | 33.9 | 31.3 | 33.7 | 31.3 | 56.3 | 45.3 | 41.2 |
| COC(=O)c1cc(C(=O)OC)cc(-c2ccc3c(c2)-c2nc4c(c(-c5ccc(OC)cc5)c2CC3)CCc2ccc(-c3cc(C(=O)OC)cc(C(=O)OC)c3)cc2-4)c1 | > 100 |  | > 100 |  | > 100 |  |  | > 100 | > 100 | 31.8 | > 100 |  | > 100 |
| CCC1C(=O)OCc2c1cc1n(c2=O)CCC12OCCO2 (configuration not stated) | > 100 | > 100 | > 100 | > 100 | > 100 | > 100 | > 100 |  | > 100 | > 100 | > 100 | > 100 | > 100 |
| COC(=O)C1=C(C)N2[C@H](C(=O)O)CS[C@@]2(C)[C@H](C(=O)OC)[C@H]1c1cccc([N+](=O)[O-])c1 | > 100 | > 100 | > 100 |  | > 100 | > 100 | > 100 | > 100 | > 100 | > 100 | > 100 | > 100 | > 100 |
| COC(=O)/C(=N\NC(=S)NN)C(C(=O)C(=O)Nc1ccccc1C(N)=O)c1nc2ccccc2[nH]c1=O (configuration not stated) | > 100 | > 100 | > 100 |  |  |  | > 100 | > 100 |  | > 100 | > 100 | > 100 |  |
| OC(c1ccco1)C(F)(F)c1nc2ccccc2o1 (configuration not stated) | > 100 | > 100 | > 100 | > 100 | > 100 | > 100 | > 100 |  | > 100 |  | > 100 | > 100 | > 100 |
| CCCC[C@@H]1CCN2C[C@@H](O)[C@@H](O)[C@H]2[C@@H]1O | > 100 | > 100 | > 100 | > 100 |  | > 100 | > 100 | > 100 | > 100 | > 100 | > 100 | > 100 | > 100 |
| CC1=CCC[C@H]2[C@](C)(CC3=CC(=O)C4SCCSC4C3=O)[C@@H](C)CC[C@]12C (some centres not stated) | 46.1 | 48.7 | 67.1 |  | 31.1 |  | 84.6 |  | 65 | 37.5 |  | 40.3 |  |
| CCOC(=O)c1c(NC(=S)Nc2ccc(C)cc2)sc2c1CCN(C)C2 | > 100 | > 100 | > 100 | > 100 | > 100 | > 100 | > 100 |  | > 100 | > 100 | > 100 | > 100 |  |
| CC1(C)[C@@H]2C[C@H]1c1cnc(-c3ccccn3)cc1[C@H]2C(O)[C@@H]1c2cc(-c3ccccn3)ncc2[C@H]2C[C@@H]1C2(C)C (some centres not stated) | 1.54 |  | 25.2 | 0.112 | 5.58 | 3.57 | 6.98 | 21.6 | 24.3 | 18 | 16.6 |  | 14.8 |
| CCOC(=O)c1[nH]c2nc(SC)nc(NC)c2c1N | > 100 | > 100 | > 100 |  | > 100 | > 100 | > 100 | > 100 | > 100 | > 100 | > 100 |  | > 100 |
| CC1(C)OC(CCO)CN1C(=O)OCc1ccccc1 (configuration not stated) | > 100 | > 100 | > 100 | > 100 |  |  | > 100 | > 100 | > 100 | > 100 |  | > 100 | > 100 |
| NS(=O)(=O)c1nnc(NSc2ccc([N+](=O)[O-])cc2)s1 | > 100 |  | > 100 |  | > 100 |  |  | > 100 | > 100 | > 100 | > 100 |  | > 100 |
| c1ccc(-c2ccc(N=NN3CCCC3)cc2)cc1 | > 100 | > 100 | > 100 |  | > 100 |  | > 100 |  | > 100 | > 100 | > 100 | > 100 | > 100 |
| NC(=O)NC(=NCc1ccccc1)NCc1ccccc1 | > 100 |  | > 100 |  | > 100 | > 100 | > 100 |  | > 100 |  | > 100 | > 100 | > 100 |
| NNC(=O)c1cccc2c1Oc1ccccc1S2 | > 100 | > 100 | > 100 | > 100 | > 100 | > 100 | > 100 |  | > 100 |  | > 100 | > 100 | > 100 |
| Clc1cccc(C2ON=C(c3ccccc3)N2C23CC4CC(CC(C4)C2)C3)c1Cl (configuration not stated) | > 10 | > 10 | > 10 |  | > 10 | > 10 | > 10 | > 10 | > 10 | > 10 | > 10 | > 10 | > 10 |

— PubChem BioAssay (NCI)
